According to paper PMC7520419 (The AAPS Journal, 2020):
In brackets after ≈: the same amount, converted by molar mass. Counter-ions that a name gives are not always drawn. Like-named read-outs stand apart in the source and are kept apart here.

Key:
[1] = PBPK food effect modeling (Simcyp V17.1 and/or GastroPlus V9.5; Model 1 / Model 2); design: species or system human
[2] = Solubility measurement in biorelevant media (FaSSIF-V2, FeSSIF-V2); conditions: for solubility: 37 °C, thermodynamic from solid
Procedure: (§1) The solubility of the drug substances was determined in biorelevant media as well as in aqueous buffers at different pH. Fasted state simulated gastric fluid (FaSSGF) ([37]), fasted state simulated intestinal fluid (FaSSIF-V2) ([38]), and fed state simulated intestinal fluid (FeSSIF-V2) ([39]) were prepared according to the instructions provided by Biorelevant (Biorelevant.com Ltd., London, UK). […] For neutral compounds, solubility was determined at pH 2, pH 4, and pH 7.
(§2) For freely soluble compounds, the extent of solubilization was measured only up to 10 mg/mL.

[3] = design: Food Effect (graded symbols): key to the marks not given beside the values; conditions: cited from earlier work
[4] = pKa
[5] = test system: Caco-2; conditions: cited from earlier work
[6] = Solubility measurement in aqueous buffer solutions; conditions: for solubility: pH 6.5, aqueous buffer, thermodynamic from solid
Procedure: as §1, §2

[7] = Effective human jejunum permeability (Peff,man) used in the PBPK model; format: in vitro ADME
[8] = not generated within this working group; ref Table I; cited from earlier work
[9] = design: method as in Table I reference column; conditions: not generated within this working group; ref Table I; cited from earlier work
[10] = FaSSIF-V2 (fasted state simulated intestinal fluid), FaSSIF solubility
[11] = FeSSIF-V2 (fed state simulated intestinal fluid), FeSSIF solubility
[12] = Model 1, fasted, ref published clinical data (Table I)
[13] = Model 1, fed, ref published clinical data (Table I)
[14] = Model 1, ref published clinical data (Table I)
[15] = Model 2, fasted, ref published clinical data (Table I)
[16] = Model 2, fed, ref published clinical data (Table I)
[17] = Model 2, ref published clinical data (Table I)
[18] = direction, AUC and/or Cmax ratio fed to fasted, BE criteria 0.8–1.25, ref drug label
[19] = not generated within this working group, ref Table I
[20] = clinically observed PK change (AUC, Cmax) fed vs fasted, compiled by literature search

CCc1nn(CCCN2CCN(c3cccc(Cl)c3)CC2)c(=O)n1CCOc1ccccc1 [Nefazodone HCl]
AUC Ratio of Ratios (Sim'd / Obs'd) ([1]; Model 1): 0.97
Cmax Ratio of Ratios (Sim'd / Obs'd) ([1]; Model 1): 0.84
AUC Ratio of Ratios (Sim'd / Obs'd) ([1]; Model 2): 1.47
Cmax Ratio of Ratios (Sim'd / Obs'd) ([1]; Model 2): 1.05
solubility [2, 10]: 1390 µg/mL
solubility [2, 11]: 3100 µg/mL
Observed AUC(0-inf) Fasted [3, 12]: 1540 ng·h/mL
Observed Cmax Fasted [3, 12]: 301 ng/mL
Observed AUC(0-inf) Fed [3, 13]: 1240 ng·h/mL
Observed Cmax Fed [3, 13]: 295 ng/mL
Observed AUC Ratios (Fed/Fasted) [3, 14]: 0.80
Observed Cmax Ratios (Fed/Fasted) [3, 14]: 0.98
Observed AUC(0-inf) Fasted [3, 15]: 1540 ng·h/mL
Observed Cmax Fasted [3, 15]: 301 ng/mL
Observed AUC(0-inf) Fed [3, 16]: 1240 ng·h/mL
Observed Cmax Fed [3, 16]: 295 ng/mL
Observed AUC Ratios (Fed/Fasted) [3, 17]: 0.80
Observed Cmax Ratios (Fed/Fasted) [3, 17]: 0.98
Food Effect [3, 18]: Negative (negative if ratio fasted > fed)
food effect (FE) direction ([3]; ref drug label): negative FE
pKa (b, basic) [4]: 6.50b
Apparent permeability (Caco-2) [5, 19]: 11 (Caco-2) ^^ × 10^−6 cm/s
solubility [6]: 5380 µg/mL
Effective permeability ([7]; human, 1 h): 220 ×10⁻⁶ cm/s

Cc1[nH]c2ccccc2c1CCNCc1ccc(/C=C/C(=O)NO)cc1 [Panobinostat]
AUC Ratio of Ratios (Sim'd / Obs'd) ([1]; Model 1): 1.25
Cmax Ratio of Ratios (Sim'd / Obs'd) ([1]; Model 1): 0.61
AUC Ratio of Ratios (Sim'd / Obs'd) ([1]; Model 2): 1.25
Cmax Ratio of Ratios (Sim'd / Obs'd) ([1]; Model 2): 1.42
Observed AUC(0-inf) Fasted [3, 12]: 148 ng·h/mL
Observed Cmax Fasted [3, 12]: 17.5 ng/mL
Observed AUC(0-inf) Fed [3, 13]: 124 ng·h/mL
Observed Cmax Fed [3, 13]: 9.8 ng/mL
Observed AUC Ratios (Fed/Fasted) [3, 14]: 0.84
Observed Cmax Ratios (Fed/Fasted) [3, 14]: 0.56
Observed AUC(0-inf) Fasted [3, 15]: 128 ng·h/mL
Observed Cmax Fasted [3, 15]: 17.5 ng/mL
Observed AUC(0-inf) Fed [3, 16]: 108 ng·h/mL
Observed Cmax Fed [3, 16]: 9.8 ng/mL
Observed AUC Ratios (Fed/Fasted) [3, 17]: 0.85
Observed Cmax Ratios (Fed/Fasted) [3, 17]: 0.56
Food Effect [3, 20]: None (none if no significant change in AUC and Cmax with food)
Food Effect [3, 18]: None (none if no significant change in AUC and Cmax with food)
pKa ([4]; pKa (a, acidic)): 8.35
pKa ([4]; pKa (b, basic)): 9
Apparent permeability (Caco-2) [5, 19]: 11 (Caco-2)^^ × 10^−6 cm/s
Effective permeability ([7]; human, 1 h): 230 ×10⁻⁶ cm/s
Solubility at pH 6.5 [8]: 261^^ μg/ml
FaSSIF solubility [9]: 140^^ μg/ml
FeSSIF solubility [9]: 230^^ μg/ml

CC(C)(CO)c1cc2cc(NC(=O)C3(c4ccc5c(c4)OC(F)(F)O5)CC3)c(F)cc2n1C[C@@H](O)CO [Tezacaftor]
AUC Ratio of Ratios (Sim'd / Obs'd) ([1]; Model 1): 0.92
Cmax Ratio of Ratios (Sim'd / Obs'd) ([1]; Model 1): 1.23
Observed AUC(0-inf) Fasted [3, 12]: 3970 ng·h/mL
Observed Cmax Fasted [3, 12]: 2340 ng/mL
Observed AUC(0-inf) Fed [3, 13]: 4360 ng·h/mL
Observed Cmax Fed [3, 13]: 1890 ng/mL
Observed AUC Ratios (Fed/Fasted) [3, 14]: 1.10
Observed Cmax Ratios (Fed/Fasted) [3, 14]: 0.81
Food Effect [3, 20]: None (none if no significant change in AUC and Cmax with food)
Food Effect [3, 18]: None (none if no significant change in AUC and Cmax with food)
pKa (ionisation state in words) [4]: Neutral
Apparent permeability (Caco-2) [5, 19]: 4.2 (Caco-2)^^ × 10^−6 cm/s
Solubility at pH 6.5 [8]: 110^^ μg/ml
FaSSIF solubility [9]: 119^^ μg/ml
FeSSIF solubility [9]: 4783^^ μg/ml

CC1(C)CCC(CN2CCN(c3ccc(C(=O)NS(=O)(=O)c4ccc(NCC5CCOCC5)c([N+](=O)[O-])c4)c(Oc4cnc5[nH]ccc5c4)c3)CC2)=C(c2ccc(Cl)cc2)C1 [Venetoclax]
AUC Ratio of Ratios (Sim'd / Obs'd) ([1]; Model 2): 0.79
Cmax Ratio of Ratios (Sim'd / Obs'd) ([1]; Model 2): 0.75
solubility [2, 10]: 0.0337 µg/mL (≈ 0.0388 µM)
solubility [2, 11]: 26.4 µg/mL (≈ 30.4 µM)
Observed AUC(0-inf) Fasted [3, 15]: 2080 ng·h/mL
Observed Cmax Fasted [3, 15]: 150 ng/mL
Observed AUC(0-inf) Fed [3, 16]: 7100 ng·h/mL
Observed Cmax Fed [3, 16]: 500 ng/mL
Observed AUC Ratios (Fed/Fasted) [3, 17]: 3.41
Observed Cmax Ratios (Fed/Fasted) [3, 17]: 3.33
Food Effect [3, 20]: Positive (positive if the ratio of fed > fasted)
Food Effect [3, 18]: Positive (positive if the ratio of fed > fasted)
pKa ([4]; pKa (a, acidic)): 3.4
pKa ([4]; pKa (b, basic)): 10.3
solubility [6]: 6 µg/mL (≈ 6.91 µM)

Cl.O=C1Cc2cc(CCN3CCN(c4nsc5ccccc45)CC3)c(Cl)cc2N1 [Ziprasidone HCl]
AUC Ratio of Ratios (Sim'd / Obs'd) ([1]; Model 2): 1.05
Cmax Ratio of Ratios (Sim'd / Obs'd) ([1]; Model 2): 0.88
FaSSIF solubility ([2]; 37°C): 4 µg/mL
FeSSIF solubility ([2]; 37°C): 13 µg/mL
Food Effect (graded symbols) ([3]; human, in vivo): ++
Observed AUC Ratios (Fed/Fasted) ([3]; human, in vivo): 2.01
Observed AUC(0-inf) Fasted ([3]; human, in vivo): 950 ng·h/mL
Observed AUC(0-inf) Fed ([3]; human, in vivo): 1910 ng·h/mL
Observed Cmax Fasted ([3]; human, in vivo): 84 ng/mL
Observed Cmax Fed ([3]; human, in vivo): 165 ng/mL
Observed Cmax Ratios (Fed/Fasted) ([3]; human, in vivo): 1.96
Apparent permeability (Caco-2) ([5]; Caco-2): 12.3 (Caco-2)^^ × 10^−6 cm/s
Solubility at pH 6.5 ([6]; room temperature): 1 μg/ml
Effective permeability [7]: 230 ×10⁻⁶ cm/s
